Source: ChEMBL document CHEMBL3396969, “Reemergence of chloroquine (CQ) analogs as multi-targeting antimalarial agents: a review” (Eur J Med Chem, 2015)

Assays:
[1] = tested on: Plasmodium falciparum; experiment: Antimicrobial activity against chloroquine-resistant Plasmodium falciparum K1; type: functional, organism-based
[2] = tested on: Plasmodium falciparum; experiment: Antimicrobial activity against Plasmodium falciparum Dd2; type: functional
[3] = tested on: Plasmodium falciparum; experiment: Antimicrobial activity against chloroquine-sensitive Plasmodium falciparum 3D7; type: functional, organism-based
[4] = tested on: Plasmodium falciparum; experiment: Antimicrobial activity against chloroquine/MQ/atrovaquone-resistant Plasmodium falciparum TM90C2B infected in human erythrocytes after 72 hrs by SYBR green I fluorescence-based method; type: functional, organism-based
[5] = tested on: Plasmodium falciparum; experiment: Antimicrobial activity against chloroquine-sensitive Plasmodium falciparum 3D7 infected in human erythrocytes after 72 hrs by SYBR green I fluorescence-based method; type: functional, organism-based; settings: 3D7, 72 h
[6] = tested on: Plasmodium falciparum; experiment: Antimicrobial activity against chloroquine/SP-resistant Plasmodium falciparum W2 infected in human erythrocytes after 72 hrs by SYBR green I fluorescence-based method; type: functional, organism-based; settings: W2, 72 h
[7] = tested on: Plasmodium falciparum; experiment: Antimicrobial activity against Plasmodium falciparum Cam6 infected in human erythrocytes after 72 hrs by SYBR green I fluorescence-based method; type: functional, organism-based; settings: Cam6, 72 h
[8] = tested on: Plasmodium falciparum; experiment: Antimicrobial activity against Plasmodium falciparum Thai6 infected in human erythrocytes after 72 hrs by SYBR green I fluorescence-based method; type: functional, organism-based; settings: Thai6, 72 h
[9] = tested on: Plasmodium falciparum; experiment: Antimicrobial activity against Mq-resistant Plasmodium falciparum D6 infected in human erythrocytes after 72 hrs by SYBR green I fluorescence-based method; type: functional, organism-based; settings: D6, 72 h
[10] = tested on: Plasmodium falciparum; experiment: Antimicrobial activity against Plasmodium falciparum 7G8 infected in human erythrocytes after 72 hrs by SYBR green I fluorescence-based method; type: functional, cell-based; settings: 7G8, 72 h
[11] = tested on: Plasmodium falciparum; experiment: Antimicrobial activity against Plasmodium falciparum D6 infected in human erythrocytes after 72 hrs by SYBR green I fluorescence-based method; type: functional, organism-based; settings: D6, 72 h
[12] = tested on: Plasmodium falciparum; experiment: Antimicrobial activity against Plasmodium falciparum Dd2 infected in human erythrocytes after 72 hrs by SYBR green I fluorescence-based method; type: functional, cell-based; settings: Dd2, 72 h
[13] = tested on: Plasmodium falciparum; experiment: Antimicrobial activity against chloroquine-resistant Plasmodium falciparum W2 infected in human erythrocytes assessed as incorporation of [3H]-hypoxanthine by beta counting analysis; type: functional, organism-based
[14] = Inhibition of beta-hematin formation; type: physicochemical

In the case of `COc1cc(NC(C)CCCNc2ccnc3cc(Cl)ccc23)c2ncccc2c1` (stereo not drawn), the IC50 [1] is reported as 80 nM, the IC50 [2] is reported as 80 nM and the IC50 [3] is reported as 80 nM.

Work on `CC(C)(N)CNc1ccnc2cc(Cl)ccc12` yielded an IC50 [4] of 5.52 nM, an IC50 [5] of 5.52 nM and an IC50 [6] of 5.52 nM. It also gave an IC50 [7] of 5.52 nM, an IC50 [8] of 5.52 nM and an IC50 [9] of 5.52 nM.

In the case of `CN(C)C(C)(C)CNc1ccnc2cc(Cl)ccc12`, the IC50 [4] is reported as 5.52 nM, the IC50 [5] is reported as 5.52 nM and the IC50 [6] is reported as 5.52 nM. It also gave an IC50 [7] of 5.52 nM, an IC50 [8] of 5.52 nM and an IC50 [9] of 5.52 nM.

For `CCN(CC)CCNc1c(C)cnc2cc(Cl)ccc12`, the IC50 [10] was 0.9 nM, the IC50 [11] was 0.9 nM and the IC50 [12] was 0.9 nM.

For `NCCNCCNc1ccnc2cc(Cl)ccc12`, the IC50 [13] was 60 nM.

`CCN(CC)CCCC(C)Nc1ccnc2cc(Cl)ccc12` (stereo not drawn) [CHLOROQUINE] gave an IC50 [14] of 27900 nM.

In the case of `COc1cc(NC(C)CCCN)c2ncccc2c1` (stereo not drawn) [PRIMAQUINE], the IC50 [1] is reported as 460 nM, the IC50 [2] is reported as 460 nM and the IC50 [3] is reported as 460 nM.
